Source: ChEMBL document CHEMBL5260832, “Hepatoprotective natural triterpenoids” (Eur J Med Chem, 2018)

Assays:
Format in all cases: functional
Mus musculus = test: Hepatoprotective activity against D-GaIN/CCl4 induced liver injury mouse model assessed as reduction in GPT level at 30 microg/kg, iv relative to control; set-up: scale not given: the % may be the effect or the level left; conditions: dose 30 µg/kg
Hepatocyte = test: Hepatoprotective activity against D-GaIN/LPS induced liver injury in rat hepatocytes assessed as cell death at 10 to 500 uM relative to control; conditions: dose 10-500 µM
L02 = test: Hepatoprotective activity against D-GaIN-induced toxicity in human HL7702 cells assessed as inhibition of cell survival rate at 10 uM relative to control

Row | SMILES | Activity (Hepatocyte) [%] | Activity (L02) [%] | also measured
1 | CC(C)=CCC[C@@](C)(O)[C@H]1CC[C@]2(C)[C@@H]1[C@H](O)C[C@@H]1[C@@]3(C)CC[C@H](O)C(C)(C)[C@@H]3[C@@H](O[C@@H]3O[C@H](CO)[C@@H](O)[C@H](O)[C@H]3O[C@@H]3O[C@@H](C)[C@H](O)[C@@H](O)[C@H]3O)C[C@]12C |  |  | Activity (Mus musculus): 50%
2 | CC(C)=CCC[C@](C)(O[C@@H]1O[C@H](CO)[C@@H](O)[C@H](O)[C@H]1O)[C@H]1CC[C@]2(C)[C@@H]1[C@H](O)C[C@@H]1[C@@]3(C)CC[C@H](O)C(C)(C)[C@@H]3CC[C@]12C |  |  | Activity (Mus musculus): 76%
3 | C[C@@H]1O[C@@H](O[C@H]2[C@H](O[C@H]3[C@H](O[C@H]4CC[C@@]5(C)[C@@H](CC[C@]6(C)[C@@H]5CC=C5[C@@H]7CC(C)(C)[C@@H](O[C@@H]8OC[C@@H](O)[C@H](O)[C@H]8O)[C@@H](O)[C@]7(C)CC[C@]56C)[C@@]4(C)CO)O[C@H](C(=O)O)[C@@H](O)[C@@H]3O)O[C@H](CO)[C@H](O)[C@@H]2O)[C@H](O)[C@H](O)[C@H]1O | 0 |  | 
4 | C[C@@H]1O[C@@H](O[C@H]2[C@H](O[C@H]3[C@H](O[C@H]4CC[C@@]5(C)[C@@H](CC[C@]6(C)[C@@H]5CC=C5[C@@H]7CC(C)(C)C[C@@H](O[C@@H]8O[C@H](CO)[C@@H](O)[C@H](O)[C@H]8O)[C@]7(C)CC[C@]56C)[C@@]4(C)CO)O[C@H](C(=O)O)[C@@H](O)[C@@H]3O)O[C@H](CO)[C@H](O)[C@@H]2O)[C@H](O)[C@H](O)[C@H]1O | 0 |  | 
5 | C[C@@H]1O[C@@H](O[C@H]2[C@H](O[C@H]3[C@H](O[C@H]4CC[C@@]5(C)[C@@H](CC[C@]6(C)[C@@H]5CC=C5[C@@H]7CC(C)(C)C[C@@H](O[C@@H]8O[C@@H](C)[C@H](O)[C@@H](O)[C@H]8O)[C@]7(C)CC[C@]56C)[C@@]4(C)CO)O[C@H](C(=O)O)[C@@H](O)[C@@H]3O)O[C@H](CO)[C@H](O)[C@@H]2O)[C@H](O)[C@H](O)[C@H]1O | 0 |  | 
6 | C=C(C)[C@@H]1CC[C@]2(C(=O)O[C@@H]3O[C@H](C(=O)OCC)[C@@H](O)[C@H](O)[C@H]3O[C@@H]3OC[C@@H](O)[C@H](O)[C@H]3O)CC[C@]3(C)[C@H](CC[C@@H]4[C@@]5(C)CC[C@H](O)C(C)(C)[C@@H]5CC[C@]43C)[C@@H]12 |  | 48.3 | 
7 | C=C(C)[C@@H]1CC[C@]2(C(=O)O)CC[C@]3(C)[C@H](CC[C@@H]4[C@@]5(C)CC[C@H](O[C@@H]6O[C@H](C(=O)OCC)[C@@H](O)[C@H](O)[C@H]6O[C@@H]6OC[C@@H](O)[C@H](O)[C@H]6O)C(C)(C)[C@@H]5CC[C@]43C)[C@@H]12 |  | 32.8 | 
8 | C[C@@H]1O[C@@H](O[C@H]2[C@H](O[C@H]3[C@H](O[C@H]4CC[C@@]5(C)[C@@H](CC[C@]6(C)[C@@H]5CC=C5[C@@H]7CC(C)(C)CC(=O)[C@]7(C)CC[C@]56C)[C@@]4(C)CO)O[C@H](C(=O)O)[C@@H](O)[C@@H]3O)O[C@H](CO)[C@H](O)[C@@H]2O)[C@H](O)[C@H](O)[C@H]1O | 0 |  | 
9 | C[C@@H]1O[C@@H](O[C@H]2[C@H](O[C@H]3[C@H](O[C@H]4CC[C@@]5(C)[C@@H](CC[C@]6(C)[C@@H]5CC=C5[C@@H]7CC(C)(C)[C@H](O[C@@H]8O[C@H](CO)[C@@H](O)[C@H](O)[C@H]8O)C[C@]7(C)CC[C@]56C)[C@@]4(C)CO)O[C@H](C(=O)O)[C@@H](O)[C@@H]3O)OC[C@@H](O)[C@@H]2O)[C@H](O)[C@H](O)[C@H]1O | 0 |  | 
10 | C[C@@H]1O[C@@H](O[C@H]2[C@H](O[C@H]3[C@H](O[C@H]4CC[C@]5(C)[C@H]6CC=C7[C@@H]8CC(C)(C)CC[C@]8(C(=O)O)CC[C@@]7(C)[C@]6(C)CC[C@H]5C4(C)C)O[C@H](C(=O)O)[C@@H](O)[C@@H]3O)O[C@H](CO)[C@@H](O)[C@@H]2O)[C@H](O)[C@H](O)[C@H]1O |  | 56.8 | 
11 | CCOC(=O)[C@H]1O[C@@H](O[C@H]2CC[C@]3(C)[C@H]4CC=C5[C@@H]6CC(C)(C)CC[C@]6(C(=O)O[C@@H]6O[C@H](CO)[C@@H](O[C@@H]7O[C@@H](C)[C@H](O)[C@@H](O)[C@H]7O)[C@H](O)[C@H]6O)CC[C@@]5(C)[C@]4(C)CC[C@H]3C2(C)C)[C@H](O[C@@H]2O[C@H](CO)[C@@H](O)[C@H](O)[C@H]2O[C@@H]2O[C@@H](C)[C@H](O)[C@@H](O)[C@H]2O)[C@@H](O)[C@@H]1O |  | 81.4 | 
12 | C[C@@H]1O[C@@H](O[C@H]2[C@H](O[C@H]3[C@H](O[C@H]4CC[C@@]5(C)[C@@H](CC[C@]6(C)[C@@H]5CC=C5[C@@H]7CC(C)(C)[C@H](O[C@@H]8O[C@H](CO)[C@@H](O)[C@H](O)[C@H]8O)C[C@]7(C)CC[C@]56C)[C@@]4(C)CO)O[C@H](C(=O)O)[C@@H](O)[C@@H]3O)O[C@H](CO)[C@H](O)[C@@H]2O)[C@H](O)[C@H](O)[C@H]1O | 0 |  | 
13 | C[C@@H]1O[C@@H](O[C@H]2[C@H](O[C@H]3[C@H](O[C@H]4CC[C@]5(C)[C@H]6CC=C7[C@@H]8CC(C)(C)CC[C@]8(C(=O)O[C@@H]8O[C@H](CO)[C@@H](O)[C@H](O)[C@H]8O)CC[C@@]7(C)[C@]6(C)CC[C@H]5C4(C)C)O[C@H](C(=O)O)[C@@H](O)[C@@H]3O)O[C@H](CO)[C@@H](O)[C@@H]2O)[C@H](O)[C@H](O)[C@H]1O |  | 87.3 | 
14 | C[C@@H]1O[C@@H](O[C@H]2[C@H](O[C@H]3[C@H](O[C@H]4CC[C@@]5(C)[C@@H](CC[C@]6(C)[C@@H]5CC=C5[C@@H]7CC(C)(C)C[C@@H](O)[C@]7(C)CC[C@]56C)[C@@]4(C)CO)O[C@H](C(=O)O)[C@@H](O)[C@@H]3O)OC[C@@H](O)[C@@H]2O)[C@H](O)[C@H](O)[C@H]1O | 0 |  | 
15 | CC1(C)CC[C@]2(C(=O)O)CC[C@]3(C)C(=CC[C@@H]4[C@@]5(C)CC[C@H](O)[C@@](C)(CO)[C@@H]5CC[C@]43C)[C@@H]2C1 [HEDERAGENIN] |  | 62.4 | 
16 | CCCCOC(=O)[C@H]1O[C@@H](O[C@H]2CC[C@]3(C)[C@H]4CC=C5[C@@H]6[C@@H](C)[C@H](C)CC[C@]6(C(=O)O[C@@H]6O[C@H](CO)[C@@H](O[C@@H]7O[C@@H](C)[C@H](O)[C@@H](O)[C@H]7O)[C@H](O)[C@H]6O)CC[C@@]5(C)[C@]4(C)CC[C@H]3C2(C)C)[C@H](O[C@@H]2O[C@H](CO)[C@@H](O)[C@H](O)[C@H]2O[C@@H]2O[C@@H](C)[C@H](O)[C@@H](O)[C@H]2O)[C@@H](O)[C@@H]1O |  | 32.2 | 
17 | CCOC(=O)[C@H]1O[C@@H](O[C@H]2CC[C@]3(C)[C@H]4CC=C5[C@@H]6CC(C)(C)CC[C@]6(C(=O)O[C@@H]6O[C@H](CO)[C@@H](O)[C@H](O)[C@H]6O[C@@H]6O[C@H](COC(C)=O)[C@@H](O)[C@H](O)[C@H]6O)CC[C@@]5(C)[C@]4(C)CC[C@H]3C2(C)C)[C@H](O[C@@H]2O[C@H](CO)[C@@H](O)[C@H](O)[C@H]2O[C@@H]2O[C@@H](C)[C@H](O)[C@@H](O)[C@H]2O)[C@@H](O)[C@@H]1O |  | 75.7 | 
18 | C[C@@H]1O[C@@H](O[C@H]2[C@H](O[C@H]3[C@H](O[C@H]4CC[C@@]5(C)[C@@H](CC[C@]6(C)[C@@H]5CC=C5[C@@H]7CC(C)(C)C[C@@H](O)[C@]7(C)CC[C@]56C)[C@@]4(C)CO)O[C@H](C(=O)O)[C@@H](O)[C@@H]3O)O[C@H](CO)[C@H](O)[C@@H]2O)[C@H](O)[C@H](O)[C@H]1O [SOYASAPONIN I] | 0 |  | 
19 | CCOC(=O)[C@H]1O[C@@H](O[C@H]2CC[C@]3(C)[C@H]4CC=C5[C@@H]6CC(C)(C)CC[C@]6(C(=O)O)CC[C@@]5(C)[C@]4(C)CC[C@H]3C2(C)C)[C@H](O[C@@H]2O[C@H](CO)[C@@H](O)[C@H](O)[C@H]2O[C@@H]2OC[C@@H](O)[C@H](O)[C@H]2O)[C@@H](O)[C@@H]1O |  | 44.8 | 
20 | CC1(C)C[C@H]2C3=CC[C@@H]4[C@@]5(C)C=CC(=O)C(C)(C)[C@@H]5CC[C@@]4(C)[C@]3(C)CC[C@@]2(C(=O)O)C[C@@H]1O |  | 76.8 | 
21 | CCCCOC(=O)[C@H]1O[C@@H](O[C@H]2CC[C@]3(C)[C@H]4CC=C5[C@@H]6CC(C)(C)CC[C@]6(C(=O)O[C@@H]6O[C@H](CO)[C@@H](O)[C@H](O)[C@H]6O)CC[C@@]5(C)[C@]4(C)CC[C@H]3C2(C)C)[C@H](O[C@@H]2O[C@H](CO)[C@@H](O)[C@H](O)[C@H]2O)[C@@H](O)[C@@H]1O[C@@H]1OC[C@H](O)[C@H](O)[C@H]1O |  | 48.3 | 
22 | CCCCOC(=O)[C@H]1O[C@@H](O[C@H]2CC[C@]3(C)[C@H]4CC=C5[C@@H]6CC(C)(C)CC[C@]6(C(=O)O[C@@H]6O[C@H](CO)[C@@H](O)[C@H](O)[C@H]6O[C@@H]6OC[C@@H](O)[C@H](O)[C@H]6O)CC[C@@]5(C)[C@]4(C)CC[C@H]3C2(C)C)[C@H](O[C@@H]2O[C@H](CO)[C@@H](O)[C@H](O)[C@H]2O[C@@H]2O[C@@H](C)[C@H](O)[C@@H](O)[C@H]2O)[C@@H](O)[C@@H]1O |  | 54.7 | 
23 | C[C@@H]1O[C@@H](O[C@H]2[C@H](O[C@H]3[C@H](O[C@H]4CC[C@@]5(C)[C@@H](CC[C@]6(C)[C@@H]5CC=C5[C@@H]7C[C@@](C)(CO[C@@H]8O[C@H](CO)[C@@H](O)[C@H](O)[C@H]8O)C[C@@H](O)[C@]7(C)CC[C@]56C)[C@@]4(C)CO)O[C@H](C(=O)O)[C@@H](O)[C@@H]3O)O[C@H](CO)[C@H](O)[C@@H]2O)[C@H](O)[C@H](O)[C@H]1O | 0 |  | 
24 | COC(=O)c1cc(OC)c2c(c1-c1c(CO)cc(OC)c3c1OCO3)OCO2 [BICYCLOL] |  | 26.2 | 
